Measurements from ChEMBL document CHEMBL1201862, “PubChem BioAssay data set” (2004).
The source made the active and inactive calls.

Tests used:
[1] = HeLa cell cytotoxicity, dose response, cytotoxicity control, 24 h, plate reader, dry powder (AID 686928); format: functional, cell-based
[2] = P. falciparum 3D7-ScDHODH growth inhibitors, dose response, SYBR Green, dry powder samples (AID 1159570); format: functional, cell-based;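 further: parasite growth measured after 72 hours of compound exposure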
[3] = HepG2 cell cytotoxicity, dose response, cytotoxicity control, plate reader, dry powder samples (AID 1159569); format: functional, cell-based;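 further: inhibitor potency with signal falling toward the positive control level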
[4] = P. falciparum Dd2 growth inhibitors, dose response, SYBR Green, cherry-picked samples (AID 1159567); format: functional, cell-based
[5] = P. falciparum Dd2 growth inhibitors, dose response, SYBR Green, dry powder samples (AID 1159566); format: functional, cell-based;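 further: potency for growth inhibition with lower SYBR green DNA signal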
[6] = HepG2 cell cytotoxicity, dose response, cytotoxicity control, cherry-picked samples (AID 1159577); format: functional, cell-based
[7] = P. falciparum ATP4 D1247Y mutant growth inhibitors, dose response, NITD609-resistant line, SYBR Green, dry powder (AID 1159571); format: functional, cell-based;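 further: parasites synchronized at ring stage by sorbitol before testing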
[8] = TRPM1 promoter luciferase reporter signal decrease, dose response, MITF inhibitor project, cell-based, SK-MEL-5, dry powder, set 9 (AID 651588); format: functional
[9] = A375 melanoma cell viability loss, dose response, counter-screen for MITF inhibitor project, CellTiter-Glo luminescence, dry powder, set 4 (AID 624364); format: functional, cell-based; conditions: A-375;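 further: A375 melanoma cells are MITF independent so this is a counter screen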
[10] = A375 melanoma cell cytotoxicity, dose response, counter-screen for MITF inhibitor project, CellTiter-Glo luminescence, dry powder, set 7 (AID 624490); format: functional, cell-based; conditions: A-375
[11] = MITF Orthogonal Assay: MALME3 CTG Assay Measured in Cell-Based System Using Plate Reader - 2084-04_Inhibitor_Dose_DryPowder_Activity_Set6.; format: functional; conditions: MALME-3
[12] = SK-MEL-5 parental cell viability reduction, dose response, orthogonal assay for MITF inhibitor project, CellTiter-Glo luminescence, dry powder, set 8 (AID 651586); format: functional, cell-based
[13] = MALME3 melanoma cell viability reduction, dose response, orthogonal assay for MITF inhibitor project, CellTiter-Glo luminescence, dry powder, set 5 (AID 651584); format: functional, cell-based; conditions: MALME-3
[14] = SK-MEL-5 parental line viability, dose response, MITF inhibitor project, cell-based, CellTiter-Glo, dry powder, set 6 (AID 624429); format: functional
[15] = MITF Orthogonal Assay: SK-MEL-5 CTG Assay Measured in Cell-Based System Using Plate Reader - 2084-02_Inhibitor_Dose_DryPowder_Activity_Set5.; format: functional
[16] = A375 melanoma cell cytotoxicity, dose response, counter-screen for MITF inhibitor project, CellTiter-Glo luminescence, dry powder, set 6 (AID 624488); format: functional, cell-based; conditions: A-375
[17] = A375 melanoma cell viability loss, dose response, counter-screen for MITF modulator project, CellTiter-Glo luminescence, dry powder, set 9 (AID 651591); format: functional, cell-based; conditions: A-375
[18] = MITF Measured in Cell-Based System Using Plate Reader - 2084-01_Inhibitor_Dose_DryPowder_Activity_Set6.; format: functional
[19] = A375 melanoma cell cytotoxicity, dose response, counter-screen for MITF inhibitor project, CellTiter-Glo luminescence, dry powder, set 2 (AID 624489); format: functional, cell-based; conditions: A-375;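 further: actives are compounds lowering A375 viability meaning general cytotoxicity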
[20] = MITF Measured in Cell-Based System Using Plate Reader - 2084-01_Inhibitor_Dose_DryPowder_Activity_Set7.; format: functional

O=c1ncn(-c2cccc(Cl)c2)c2cc(Cl)ccc12
AC50 [1]: > 160 µM (inactive)

C[C@H]1CN([C@@H](C)CO)C(=O)c2c(c3ccccc3n2C)-c2ccccc2CO[C@H]1CN(C)Cc1ccc(-c2ccccc2)cc1
AC50 [2]: 3.14 µM (active) | AC50 [3]: 28.9 µM (active) | AC50 [4]: 2.64 µM (active) | AC50 [5]: 1.54 µM (active) | AC50 [6]: > 39 µM (inactive) | AC50 [7]: 2.1 µM (active)

CCN1CCN(C2=C(NC(=O)c3ccccc3)C(=O)c3ccccc3C2=O)CC1
AC50 [8]: 1.72 µM (active) | AC50 [9]: 26.7 µM (active) | AC50 [10]: 10.1 µM (active) | AC50 [11]: 5.64 µM (active) | AC50 [12]: 9.73 µM (active) | AC50 [13]: 5.64 µM (active) | AC50 [14]: 9.53 µM (active) | AC50 [15]: 6.95 µM (active) | AC50 [16]: 15.8 µM (active) | AC50 [17]: 27.3 µM (active) | AC50 [18]: 0.523 µM (active) | AC50 [19]: 11.2 µM (active) | AC50 [20]: 0.729 µM (active)

O=c1c2ccccc2n(CC(O)CN2CCCCC2)c2ccccc12 (stereo unspecified)
AC50 (cells): 3.43 µM (active)
